Data published in the supplement of paper PMC10307832.

What was measured:
Assay in all cases: relative viability (nuclei count vs DMSO), 5 days (fraction); higher = more cells survive
[1] = compound: C1CC2=C(C1)C=C(C=C2)OC3=NC(=C4C(=N3)N(C=N4)CC5=CC=C(C=C5)C6=CC=CC=C6)N[C@@H](CC7=CC=CC=C7)CO [QS11] + CC(=O)c1c(C)c2cnc(Nc3ccc(N4CCNCC4)cn3)nc2n(C2CCCC2)c1=O [Palbociclib] (partner 0.5 µM)
In short: (§1)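 Relative viability equals treated-well nuclei counts divided by vehicle-well nuclei counts. Counts came from 4× images of lung cancer cell lines grown in 1536-well plates for 5 days after pin-tool dosing on the day after seeding. Dosing used one drug alone or a fixed anchor-drug dose plus five library-drug doses (not always all listed) in √10 steps, and values are medians of duplicate plates.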

[2] = compound: CC1=C(C=C(C=C1)NC(=O)C2=CC(=CC=C2)C(C)(C)C#N)NC3=CC4=C(C=C3)N=CN(C4=O)C [AZ628] + O=C(c1cc(Cc2n[nH]c(=O)c3ccccc23)ccc1F)N1CCN(C(=O)C2CC2)CC1 [Olaparib] (partner 8 µM)
In short: as §1

[3] = compound: C[As](C)SC[C@H](NC(=O)CC[C@H](N)C(=O)O)C(=O)NCC(=O)O [Darinaparsin] + N=C(N)NC(=N)NCCc1ccccc1 [Phenformin] (partner 250 µM)
In short: as §1

[4] = compound: CC1=C(C=C(C=C1)NC(=O)C2=CC(=CC=C2)C(C)(C)C#N)NC3=CC4=C(C=C3)N=CN(C4=O)C [AZ628] + N=C(N)NC(=N)NCCc1ccccc1 [Phenformin] (partner 250 µM)
In short: as §1

Row | Cell Line | relative viability ([1]; first compound 0.08 µM) | relative viability ([1]; first compound 0.253 µM) | relative viability ([1]; first compound 0.8 µM) | relative viability ([1]; first compound 2.53 µM) | relative viability ([1]; first compound 8 µM) | relative viability ([2]; first compound 0.08 µM) | relative viability ([2]; first compound 0.253 µM) | relative viability ([2]; first compound 0.8 µM) | relative viability ([2]; first compound 2.53 µM) | relative viability ([2]; first compound 8 µM) | relative viability ([3]; first compound 0.08 µM) | relative viability ([3]; first compound 0.8 µM) | relative viability ([3]; first compound 2.53 µM) | relative viability ([3]; first compound 8 µM) | relative viability ([4]; first compound 0.08 µM) | relative viability ([4]; first compound 0.253 µM) | relative viability ([4]; first compound 0.8 µM) | relative viability ([4]; first compound 2.53 µM) | relative viability ([4]; first compound 8 µM)
1 | SW 900 | 0.588 | 0.593 | 0.456 | 0.481 | 0.425 | 1.04 | 0.878 | 1.02 | 0.951 | 0.683 | 0.836 | 0.475 | 0.701 | 0.643 | 0.536 | 0.691 | 0.561 | 0.422 | 0.399
2 | LC-2-ad | 0.512 | 0.47 | 0.405 | 0.451 | 0.501 | 0.712 | 0.646 | 0.823 | 0.736 | 0.681 | 0.614 | 0.5 | 0.564 | 0.484 | 0.606 | 0.562 | 0.556 | 0.49 | 0.532
3 | BEN | 0.479 | 0.481 | 0.501 | 0.52 | 0.502 | 1.26 | 0.912 | 0.995 | 1.03 | 1.02 | 0.263 | 0.268 | 0.263 | 0.265 | 0.265 | 0.331 | 0.268 | 0.27 | 0.231
4 | NCI-H1651 | 0.542 | 0.53 | 0.4 | 0.48 | 0.581 | 0.171 | 0.186 | 0.172 | 0.184 | 0.191 | 0.351 | 0.302 | 0.298 | 0.357 | 0.396 | 0.316 | 0.334 | 0.312 | 0.36
5 | EKVX | 0.401 | 0.375 | 0.33 | 0.284 | 0.391 | 0.926 | 0.768 | 0.947 | 0.914 | 0.79 | 0.244 | 0.24 | 0.228 | 0.243 | 0.241 | 0.222 | 0.187 | 0.232 | 0.211
6 | NCI-H522 | 0.766 | 0.841 | 0.987 | 1.15 | 1.19 | 0.643 | 0.691 | 0.602 | 0.689 | 0.522 | 0.711 | 0.597 | 0.611 | 0.658 | 0.628 | 0.516 | 0.617 | 0.542 | 0.663
7 | COR-L 105 | 0.423 | 0.437 | 0.417 | 0.352 | 0.442 | 0.754 | 0.83 | 0.704 | 0.684 | 0.816 | 0.505 | 0.486 | 0.433 | 0.451 | 0.541 | 0.483 | 0.4 | 0.488 | 0.323
8 | NCI-H1650 | 0.354 | 0.251 | 0.271 | 0.355 | 0.245 | 0.839 | 0.866 | 0.847 | 0.766 | 0.909 | 0.472 | 0.416 | 0.494 | 0.395 | 0.537 | 0.403 | 0.33 | 0.333 | 0.335
9 | HCC-15 | 0.765 | 0.808 | 0.579 | 0.701 | 0.542 | 0.712 | 0.747 | 0.737 | 0.738 | 0.53 | 0.642 | 0.481 | 0.353 | 0.61 | 0.479 | 0.4 | 0.366 | 0.417 | 0.224
10 | ChaGo-K-1 | – | 0.955 | 1.02 | 1.02 | 1.07 | 0.456 | 0.389 | 0.422 | 0.452 | 0.453 | 0.494 | 0.535 | 0.515 | 0.575 | 0.559 | 0.464 | 0.398 | 0.459 | 0.373
11 | SK-LU-1 | 0.345 | 0.419 | 0.336 | 0.365 | 0.376 | 0.376 | 0.37 | 0.44 | 0.379 | 0.315 | 0.777 | 0.417 | 0.384 | 0.743 | – | 0.433 | 0.488 | 0.348 | 0.253
12 | LCLC-103H | 0.498 | 0.506 | – | 0.535 | 0.481 | 0.797 | 0.77 | 0.761 | 0.779 | 0.769 | 0.36 | 0.365 | 0.318 | 0.349 | 0.358 | 0.329 | 0.343 | 0.302 | 0.308
13 | RERF-LC-KJ | 1.08 | 0.999 | 0.724 | 0.895 | 0.874 | 0.807 | 0.925 | 1.01 | 1.01 | 0.865 | 0.495 | 0.447 | 0.369 | 0.434 | 0.432 | 0.424 | 0.392 | 0.401 | 0.31
14 | NCI-H2087 | 0.249 | 0.27 | 0.247 | 0.2 | 0.197 | 0.446 | 0.491 | 0.383 | 0.537 | 0.181 | 0.553 | 0.451 | 0.467 | 0.608 | 0.348 | 0.289 | 0.246 | 0.27 | 0.169
15 | LOU-NH91 | 0.527 | 0.536 | 0.513 | 0.58 | 0.629 | 0.935 | 0.94 | 0.965 | 0.936 | 0.764 | 0.731 | 0.683 | 0.692 | 0.705 | 0.749 | 0.654 | 0.776 | 0.661 | 0.438
16 | 201T | 0.369 | 0.406 | 0.345 | 0.395 | 0.277 | 0.909 | 0.865 | 0.908 | 0.868 | 0.926 | 0.478 | 0.451 | 0.404 | 0.5 | 0.507 | 0.455 | 0.245 | 0.438 | 0.445
17 | UMC-11 | 0.307 | 0.343 | 0.378 | 0.343 | 0.337 | 0.393 | 0.357 | 0.291 | 0.344 | 0.331 | 0.369 | 0.341 | 0.357 | 0.325 | 0.322 | 0.268 | 0.339 | 0.294 | 0.255
